Assay results: patent publication US20110117210A1, “Therapeutic treatment of human cancers using simple salts of zinc” (priority 2009, published 2011)
Where two headings read alike, the source gives them in different places.

Experiments:
[1] = test system: human colorectal cancer cells; conditions: in-vitro; cited from earlier work
[2] = test system: human thyroid cancer cells; conditions: in vitro; cited from earlier work
[3] = test system: human prostate cancer cells; conditions: cited from earlier work
[4] = Monitoring of treated cancer patients for manifestations of zinc toxicity; format: in vivo, human; conditions: for toxic effects of zinc treatment: oral 600 mg per day 5 months, 900 mg per day 4 months
Protocol: Step 4: Periodically monitoring the status of the afflicted human subject during the therapeutic treatment regimen to confirm that no manifestations of zinc toxicity appear.
The levels of zinc can be monitored in plasma by conventional blood test. A medically normal concentration of zinc in human plasma is about 100 μg/100 mL.
The oncologist or physician should therefore periodically examine their patient in two ways during treatment:
First, the patient should be physically examined on a regular time basis for symptoms of zinc toxicity. As noted above, the risk and dangers of zinc toxicity in humans can occur in both acute and chronic forms; and symptoms of zinc toxicity can appear as nausea, vomiting, loss of appetite, abdominal cramps, diarrhea, and headaches.
Second, samples of the patient's blood should be taken routinely and regularly tested for zinc content using the blood chemistry assays and instrumentation conventionally known and commercially sold for this purpose. Although the values for the individual patient will likely vary considerably, the test results should approximate the medically normal concentration of zinc in human plasma of about 100 μg/100 mL.
In addition, although it is considered very unlikely that any manifestations of zinc toxicity will appear in an individual patient over the duration of therapeutic treatment with the present invention, it is deemed to be proper and necessary to verify that no serious manifestations of zinc toxicity appear regardless of how long the treatment regimen is continued. This is considered to be especially important in view of the likelihood of months and years of therapeutic treatment for some patients. Accordingly, the testing for undesirable zinc effects and toxicity should continue concurrently with and over the full duration of the therapeutic treatment for the patient.

[5] = test system: metastatic melanoma; assay: Clinical Case History 2: oral zinc salt treatment of a patient with metastatic melanoma; format: in vivo, human; conditions: oral 600 mg per day; for edema of right leg: July 2009 follow-up; for metastatic nodes in abdominal cavity, computer tomography and ultrasound: Oct. 20, 2009, then 900 mg per 24 hours July-October 2009
Protocol: In November 2008, the skin lesion became progressively larger and ulcerated. Then in December 2008, a skin tumor resection and dissection of an enlarged right inguinal lymph nodes were performed, yielding melanoma and inguinal lymph nodes with metastatic disease.
In January 2009, a course of conventional chemotherapy was prescribed and performed for the patient.
The patient was subsequently discharged from the hospital, with a poor prognosis (up to 2 months survival time).
The patient then began orally taking Zinc Picolinate at a 600 mg per day dosage. They orally ingested Zinc Picolinate daily, for 5 months time (from February, 2009 to May, 2009); and then Zinc Sulfate daily for 1 month (June, 2009) at a dose of 600 mg per day (300 mg twice a day with a meal) and for 4 months (from July, 2009 to October, 2009) at a dose of 900 mg per 24 hours (300 mg every 8 hours with a meal).

[6] = 80 mg per day of zinc for 6.3 years on average; cited from earlier work
[7] = test system: HIPK2i cells; conditions: zinc added to culture medium concomitant with adriamycine (ADR); cited from earlier work
[8] = biological target: GSK-3 (Glycogen Synthase Kinase-3) (Homo sapiens, UniProt P49841); conditions: cited from earlier work
Chain of GSK-3 (Glycogen Synthase Kinase-3) (P49841 whole entry): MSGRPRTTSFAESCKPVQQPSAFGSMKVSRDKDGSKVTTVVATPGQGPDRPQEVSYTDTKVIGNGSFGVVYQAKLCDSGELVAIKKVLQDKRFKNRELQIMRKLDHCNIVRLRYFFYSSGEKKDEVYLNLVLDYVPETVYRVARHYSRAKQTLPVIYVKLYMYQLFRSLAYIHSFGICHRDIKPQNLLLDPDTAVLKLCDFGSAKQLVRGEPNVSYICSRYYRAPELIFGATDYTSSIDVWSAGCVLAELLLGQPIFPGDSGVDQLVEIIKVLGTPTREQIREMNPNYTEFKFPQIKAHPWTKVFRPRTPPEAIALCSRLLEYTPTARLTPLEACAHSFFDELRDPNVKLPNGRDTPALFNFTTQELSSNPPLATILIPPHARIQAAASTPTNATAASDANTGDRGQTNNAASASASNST

[9] = cited from earlier work
[10] = human, cited from earlier work
[11] = after ingesting 4 grams (570 milligrams of elemental zinc); cited from earlier work
[12] = test system: squamous cell carcinoma of the lung; assay: Clinical Case History 1: oral zinc salt treatment of a lung cancer patient; format: in vivo, human
Protocol: A person was admitted to hospital with a cough, life threatening hemoptysis on Jan. 30, 2009. […] Because the patient denied either operation or chemotherapy, their survival prognosis was poor, up to 2 months survival time.
The patient then began taking Zinc Picolinate, orally, at a dose concentration of 200 mg a day. The patient orally ingested Zinc Picolinate daily, for 5 months (from February, 2009 to July, 2009) at a concentration of 200 mg per day, as a dose of 100 mg ingested twice a day with a meal. To date, the patient has not taken any other chemotherapeutic anticancer drug/agent, nor has undergone any other form of conventional cancer treatment.
The patient has been orally ingesting 200 mg of Zinc Picolinate per day for nearly six calendar months time. […] The patient has been orally taking 600 mg of Zinc Picolinate daily from August, 2009 to October, 2009.

[13] = water and aqueous based fluids, cited from earlier work
[14] = test system: lung cancer (squamous cell carcinoma); assay: Clinical Case History 3: oral zinc salt treatment of a lung cancer patient after radiotherapy; format: in vivo, human
Protocol: A person afflicted with lung cancer (tumor stenosis of right upper lobe bronchus, squamous cell carcinoma) had been conventionally treated with radiotherapy.
The patient then began to take Zinc Picolinate daily, for 1 month, at a dose of 600 mg per day (orally ingested as 300 mg of Zinc Picolinate taken twice a day with meals). […] The patient continued to take Zinc Picolinate orally from August, 2009 till October, 2009—but at a dose of 900 mg per day (orally ingested as 300 mg of Zinc Picolinate every 8 hours with meals).

[15] = Case History 2, metastatic melanoma
[16] = Case History 2, metastatic melanoma, oral 600-900 mg per day

Question: For `[Cl-].[Cl-].[Zn+2]` [Zinc Chloride], which proliferation [1] is on record?
Answer: inhibits proliferation

Question: What about the apoptosis [2] of the same molecule?
Answer: induces apoptosis

Question: What about the proliferation [2] of the same molecule?
Answer: inhibits proliferation

Question: What does the source list for `O=S(=O)([O-])[O-].[Zn+2]` [Zinc Sulfate]?
Answer: apoptosis [3]: induce apoptosis; proliferation [3]: inhibit proliferation; toxic effects of zinc treatment [4, 15]: no toxic effects; weight loss [4, 16]: no weight loss; edema of right leg [5]: significantly decreased; metastatic nodes in abdominal cavity, computer tomography and ultrasound [5]: complete regression

Question: For `[O]=[Zn]` [zinc oxide], which “hospitalizations for genitourinary causes” value [6] is on record?
Answer: significant increase

Question: For `[Zn]` [zinc], which wtp53 transcription activity [7] is on record?
Answer: restored wtp53 transcription activity

Question: And the IC50 [8]?
Answer: 15 µM

Question: And the “level of zinc in diet known to cause chronic zinc toxicosis” value [9]?
Answer: > 2,000 ppm

Question: And the “intake with reported reductions in a copper-containing enzyme (marker of copper status)” value ([10]; up to 10 weeks)?
Answer: approximately 60 mg/day

Question: And the “intake associated with chronic effects: low copper status, altered iron function, reduced immune function, reduced high-density lipoproteins” value [10]?
Answer: 150-450 mg of zinc per day

Question: For Zinc Gluconate, which “time to severe nausea and vomiting” value [11] is on record?
Answer: ≤ 30 min

Question: Which results are given for Zinc Picolinate?
Answer: signs of cancer progression ([12]; November 2009, nine months of treatment: 200 mg per day, then 600 mg daily August-October 2009): no signs of cancer progression; clinical outcome of treatment (tumor growth, disease status) ([12]; oral 200 mg per day (100 mg twice a day), 5 months, no other cancer treatment): suppression of tumor growth and stabilization of the disease; right pleural effusion, computer tomography ([12]; oral 200 mg per day about 5 months, Jul. 1, 2009, effusion present Jan. 14, 2009): no right pleural infusion; changes in the size of enlarged subcarinal lymph nodes, computer tomography ([12]; oral 200 mg per day about 5 months, Jul. 1, 2009 vs Jan. 14, 2009): no meaningful changes; changes in the size of primary lung tumor, computer tomography ([12]; person, oral 200 mg per day (100 mg twice a day) about 5 months, Jul. 1, 2009 vs Jan. 14, 2009): no substantive changes; weight loss ([4]; Case History 1, lung cancer, nine months oral treatment, 200 then 600 mg per day): no weight loss; toxic effects of treatment ([4]; Case History 1, lung cancer, oral 200 mg per day, later 600 mg per day): no toxic effects; toxic effects of zinc treatment [4, 15]: no toxic effects; weight loss [4, 16]: no weight loss; zinc toxic effects ([4]; Case History 3, lung cancer, oral 600 mg per day 1 month, 900 mg per day 3 months): no zinc toxic effects; weight loss ([4]; Case History 3, lung cancer, oral 600-900 mg per day): no weight loss; zinc toxicity ([4]; three cancer patients (Case Histories 1-3), 200 mg to 900 mg per day, daily for 4-9 months): no zinc toxicity; edema of right leg [5]: significantly decreased; metastatic nodes in abdominal cavity, computer tomography and ultrasound [5]: complete regression; Water Solubility [13]: slightly soluble; Water Solubility ([13]; listed as zinc picolinate): only slightly soluble; overall physical condition (cough, shortness of breath) ([14]; 600 mg per day 1 month, then 900 mg per day 3 months): significant improvement; tumor size, bronchoscopy ([14]; Oct. 21, 2009, 600 mg per day 1 month, then 900 mg per day August-October 2009): significant decrease; right upper lobe bronchus previously obstructed by tumor, bronchoscopy ([14]; Oct. 21, 2009, 90% of bronchial lumen obstructed Jun. 14, 2009, 600 then 900 mg per day): complete opening; decrease in the size of the lung tumor, X-ray examination ([14]; after one month oral 600 mg per day (300 mg twice a day)): 2 fold
